Laboratory results: patent publication US20200032313A1 (SANYO CHEMICAL INDUSTRIES, LTD., priority 2017, published 2020)
Where two headings read alike, the source gives them in different places.

Legend:
[1] = system: luciferase-expressing Pichia pastoris; type: cell-based; settings: 8 hours
Description: Transformation was performed using Pichia pastoris distributed by Biotechnology Center, National Institute of Technology and Evaluation, whereby luciferase-expressing microorganisms were produced. A vector pPICZ a (Thermo Fisher Scientific) was digested with XhoI and XbaI, and a synthetic (synthesized by Thermo Fisher Scientific on commission) luciferase gene having an XhoI cut site at one end and an XbaI cut site at the other end was inserted into the vector. The microorganisms were transformed by the luciferase gene-inserted pPICZ a according to the method described in an instruction manual of pPICZ a. The luciferase-expressing microorganisms were inoculated using a platinum loop into BMGY broth, and were shake-cultured at 200 rpm at 30° C. for 15 hours. Then, the thus-obtained broth was resuspended in 125-ml BMGY broth (yeast extract 1 wt % (Difco), bacto peptone 2 wt % (Difco), yeast nitrogen base w/o amino acid 1.34 wt % (Difco), glucose 2 wt %, and 100 mM potassium hydrogen phosphate; pH: 6.0) to a final OD of 0.1 OD/ml. Further, the resuspended broth was continued to be shake-cultured at 1100 rpm at 30° C. for about 17 hours until OD was 20 to 30. When OD was 20 to 30, the broth was centrifuged (1500 g, 10 min), and resuspended in 125-ml BMMY broth, followed by culturing at 1100 rpm at 30° C. for 2 hours.
Two hours later, the surfactant described in Table 2 was added to the broth in the amount (wt %) described in Table 2, and the broth was cultured at 1100 rpm at 30° C. for 8 hours. Subsequently, the broth was sampled for measuring the optical density (optical density at the end of culturing) and for measuring the secretion efficiency. Then, these samples were subjected to centrifugation using a centrifuge to separate bacteria and the supernatant from the broth. Then, the supernatant and the bacteria were collected.
The broth obtained in each of Examples 1 to 22 and Comparative Examples 1 and 2 was 10 to 1000-fold diluted in a 0.2 M Tris-HCl buffer (pH 7.4), and 20 μl of the dilution was mixed with 60 μl of a luciferin solution described below to obtain a sample. The emission intensity of the sample was measured using a luminometer under the following conditions, and the measured emission intensity was substituted into the following formula. The resulting value was regarded as the luciferase activity of the secreted and produced useful substance.
Luminometer: “Glomax Navigator” available from Promega Corporation Luciferin solution: product of New England Biolabs Japan Inc. Measurement temperature: 25° C. Detector: emission detector Detection wavelength: 350 to 700 nm
(Luciferase activity of secreted and produced useful substance)=(Emission intensity)×dilution factor/(optical density at the end of culturing)
The bacteria obtained in each of Examples 1 to 22 and Comparative Examples 1 and 2 were mixed with a 0.2 M Tris-HCl buffer (pH 7.4) in an amount of 200 μl that is equal to the amount of the removed supernatant, followed by centrifugation, whereby the bacteria were washed. The washed bacteria were resuspended in a 0.2 M Tris-HCl buffer (pH 7.4) in an amount of 200 μl that is equal to the amount of the washed supernatant, and 10 to 1000-fold diluted in a 0.2 M Tris-HCl buffer (pH 7.4). The resulting dilution was used as a sample for measuring the luciferase activity on the bacterial surface.
Then, 20 μl of the sample for measuring the luciferase activity on the bacterial surface was mixed with 60 μl of the luciferin solution to obtain a sample. The emission intensity of the sample was measured under the same conditions as for “Measurement of luciferase activity of secreted and produced useful substance”, and the measured emission intensity was substituted into the following formula. The resulting value was regarded as the luciferase activity of the useful substance remaining on the bacterial surface. […]

[2] = system: acid phosphatase-expressing Candida boidinii; type: cell-based; settings: 8 hours culturing after addition
Description: Candida boidinii was transformed and acid phosphatase-expressing microorganisms were produced based on a method described in a known document (Regulation and evaluation of five methanol-inducible promoters in the methylotrophic yeast Candida boidinii, H. Yurimoto et al., Biochimica et Biophysica Acta, 1493, 2000, pp. 56-63). The acid phosphatase-expressing microorganisms were inoculated using a platinum loop into BMGY broth, and were shake-cultured at 200 rpm at 30° C. for 15 hours. Then, the thus-obtained broth was resuspended in 125-ml BMGY broth to a final OD of 0.1 OD/ml. Further, the resuspended broth was continued to be shake-cultured at 1100 rpm at 30° C. for about 17 hours until OD was 2 to 5. When OD was 2 to 5, methanol was added to a concentration of 2 v/v %, followed by culturing at 1100 rpm at 30° C. for 2 hours.
Two hours later, the surfactant described in Table 3 was added to the broth in the weight described in Table 3, and the broth was cultured at 1100 rpm at 30° C. for 8 hours. Eight hours later, the broth was sampled for measuring the optical density (optical density at the end of culturing), and was subjected to centrifugation using a centrifuge to separate bacteria and the supernatant from the broth. Then, the supernatant and the bacteria were collected.
The optical density of the broth containing the microorganisms collected by sampling was measured in a quartz cell (light path of 1 cm) using a spectrophotometer (UV-1700, Shimadzu Corporation).
The broth was centrifuged at 1500 rpm at 4° C. for 5 minutes, and the supernatant was discarded. The precipitate was resuspended in a saline solution in an amount equal to the amount of the sample solution, and was diluted in the saline solution to obtain an appropriate absorbance (0.1 to 0.8). Then, the absorbance at 600 nm was measured. The optical density of the broth was calculated using the following mathematical formula (1).
Broth optical density(OD)=(Absorbance of diluted broth at 600 nm)×dilution factor of broth (Mathematical formula 1)

[3] = surfactant 0.03 wt % of broth, Examples 13, 16-22
[4] = surfactant 0.03 wt % of broth, Examples 24, 27-33

CCCCCCCCCCCCNCCC(=O)O
Secretion efficiency (%) ([1]; surfactant 0.003 wt % of broth, Example 12): 64%
Secretion efficiency (%) [1, 3]: 80%
Secretion efficiency (%) ([1]; surfactant 0.3 wt % of broth, Example 14): 84%
Secretion efficiency (%) ([1]; surfactant 3 wt % of broth, Example 15): 67%
Optical density (OD) of broth at the end of culturing ([2]; surfactant 0.003 wt % of broth, Example 23): 5.1 OD
Optical density (OD) of broth at the end of culturing [2, 4]: 6.0 OD
Optical density (OD) of broth at the end of culturing ([2]; surfactant 0.3 wt % of broth, Example 25): 2.7 OD
Optical density (OD) of broth at the end of culturing ([2]; surfactant 3 wt % of broth, Example 26): 2.7 OD

CCCCCCCCCCCC[N+](C)(C)C.[Cl-] [Surfactant (A2-1), lauryl trimethyl ammonium chloride]
Secretion efficiency (%) [1, 3]: 88%
Optical density (OD) of broth at the end of culturing [2, 4]: 3.94 OD

CCCCCCCCCCCC[N+](C)(C)CCCS(=O)(=O)O.[OH-] [Surfactant (A3-3), dodecyldimethyl(3-sulfopropyl)ammonium hydroxide]
Secretion efficiency (%) [1, 3]: 75%
Optical density (OD) of broth at the end of culturing [2, 4]: 8.07 OD

CCCCCCCCCCCCCCCCOP(=O)([O-])OCC[N+](C)(C)C [Surfactant (A3-4), miltefosine, reference compound]
Secretion efficiency (%) [1, 3]: 66%
Optical density (OD) of broth at the end of culturing [2, 4]: 7.91 OD

CCCCCCCCCCCC[N+](C)(C)CC(=O)[O-] [Surfactant (A3-5), betaine lauryldimethylaminoacetate]
Secretion efficiency (%) [1, 3]: 90%
Optical density (OD) of broth at the end of culturing [2, 4]: 7.33 OD

sodium (2-dodecylamino)ethanesulfonate [Surfactant (A3-1)]
Secretion efficiency (%) [1, 3]: 62%
Optical density (OD) of broth at the end of culturing [2, 4]: 5.7 OD

sodium polyoxyethylene (average 2.5 mol adduct) lauryl ether sulfate [Surfactant (A1-1)]
Secretion efficiency (%) [1, 3]: 66%
Optical density (OD) of broth at the end of culturing [2, 4]: 5.77 OD

sodium polyoxyethylene (average 3 mol adduct) lauryl ether acetate [Surfactant (A1-2)]
Secretion efficiency (%) [1, 3]: 64%
Optical density (OD) of broth at the end of culturing [2, 4]: 5.68 OD
